Consider 5 compounds from US9334487B2, “Methods for diagnosing rheumatoid arthritis” (Imperial Innovations Limited, priority 2007, dated 2016).

In experiment [1] the test system is serum antibodies of RA patients and healthy controls grouped by CCP status. Briefly: ELISA for reactivity with CEP-1, Swedish EIRA cohort (Example 3). Format: binding, human. On the procedure: Sera from healthy controls and 511 rheumatoid arthritis patients from the Swedish EIRA (Epidemiological Investigation of Rheumatoid Arthritis) cohort (Stolt et al, Quantification of the influence of cigarette smoking on RA, Ann Rheum Dis, 2003; 62:835-841), were tested for antibodies to cyclic citrullinated peptides using the commercially available anti-CCP ELISA. At least 600 healthy controls were screened and, amongst these, a rare population that were CCP positive (n=16) were identified. Two of these CCP positive individuals have developed RA since the blood samples were collected.
Sera from the 511 rheumatoid arthritis patients, 16 CCP positive healthy controls and 126 CCP negative healthy controls were also screened by ELISA for reactivity with CEP-1 (Peptide 1A) as described in Example 1. The rheumatoid arthritis patients were divided into CCP positive (n=410) and CCP negative (n=101) groups.
A general note: ELISA stands for enzyme-linked immunosorbent assay.

In experiment [2] the test system is serum IgG of RA patients, disease controls and healthy controls. Briefly: ELISA for IgG antibodies to cyclic α-enolase peptides, UK cohort sera. It counts as binding, human. The settings on record: for % positive, RA (n = 102): UK cohort RA sera; for % positive, RA (n = 102) / % positive, Disease controls (n = 110) / % positive, Healthy controls (n = 92): cut-off OD450 = 0.1. From the text:
(§1) Serum samples were obtained with informed consent and ethical approval from 102 patients with RA and 92 (or 110 patients for the results generally shown in FIGS. 9 to 16) patients with other arthritidies (including systemic lupus erythematosus (n=32), Sjogrens syndrome (n=31), psoriatic arthritis (n=5), Behçet's syndrome (n=18; FIGS. 9 to 16) and miscellaneous other rheumatic diseases (n=24). 92 control serum samples were obtained from healthy volunteers. An additional cohort of 24 patients with RA undergoing treatment with either methotrexate (MTX) alone (n=13) or methotrexate in combination with Infliximab (INF) (n=11) were collected before treatment as well as 6, 18 and 52 weeks post treatment. Disease activity score (DAS 28), erythrocyte sedimentation rate (ESR) and C-reactive protein (CRP) were measured for each patient at the same time points, i.e. 0, 6, 18 an 52 weeks post treatment. All patients attended the Rheumatology Clinic at Charing Cross Hospital, London. An independent cohort from the US included serum samples from 81 RA patients, taken at baseline in a clinical trial at the Omaha Veterans Affairs Medical Centre, University of Nebraska, USA, and 82 serum samples from healthy volunteers. All RA patients met the American College of Rheumatology (ACR) classification criteria (43).
Fifteen cyclic 15 to 23-mer peptides were synthesised at Cambridge Research Biochemicals (Cleveland, UK). The peptide sequences corresponded to amino acid sequences in human α-enolase (SwissProt accession number P06733) or P. gingivalis enolase (SwissProt accession number AAQ66821), with the addition of cysteine residues at the amino- and carboxy-termini and the exchange of citrulline for arginine residues at certain positions, as shown in Tablet and Table 2 below.
(§2) 96-well plates (Maxisorp; Nunc, Roskilde, Denmark) were coated with α-enolase peptides at 10 μg/ml (diluted in a 50 mM carbonate buffer, pH 9.6), or with carbonate buffer alone, and incubated over night at 4° C. Wells were washed with PBS-Tween (0.05%) and blocked with 2% BSA (diluted in PBS) for 3 hours at room temperature. Sera were diluted 1:50 in RIA-buffer (10 mM Tris, 1% BSA, 350 mM NaCl, 1% Triton-X, 0.5% Na-deoxychlate, 0.1% SDS) supplemented with 10% FCS, added in duplicates and incubated for 1.5 hour at room temperature. Plates were washed as described above and incubated with peroxidase-conjugated mouse anti-human IgG (Hybridoma Reagent Laboratory, Baltimore, USA) (diluted 1:1000 in RIA-buffer, 10% FCS) for 1 hour at room temperature. After a final wash (PBS-Tween, 0.05%), bound antibodies were detected with TMB substrate (KPL, Maryland, USA). The reaction was stopped by the addition of 1M H2SO4 and absorbance measured at 450 nm in a Multiscan Ascent microplate reader (Thermo Labsystems). A control serum was included on all plates to correct for plate-to-plate variation. Background OD450 (wells coated with only carbonate buffer) was subtracted from peptide OD450 for every serum tested. Values above 0.1 were taken as positive. ELISA on the US serum samples were performed in a similar manner, but with 2% BSA in carbonate buffer as background, and with an OD cut-off of 0.2 for positive samples. Anti-CCP antibody status was analysed using the CCP2 kit (Eurodiagnostica, Malmo, Sweden), according to the manufacturer's instructions.

For experiment [3], the system named is serum IgG of RA patients and healthy controls (US cohort). Briefly: anti-CEP-1 antibody ELISA, independent US cohort. Format: binding, human.
From the text: as §1
as §2, with “ELISA on the US serum samples were performed in a similar manner, but with 2% BSA in carbonate buffer as background, and with an OD cut-off of 0.2 for positive samples.” left out, “instructions. […]” for “instructions.”

Experiment [4] has as its system anti-Peptide 1A and anti-CCP antibodies in serum. Briefly: Serology over time in 24 RA patients treated with MTX or MTX+INF. It counts as binding, human.
From the text: as §1, with “All patients attended the Rheumatology Clinic at Charing Cross Hospital, London. An independent cohort from the US included serum samples from 81 RA patients, taken at baseline in a clinical trial at the Omaha Veterans Affairs Medical Centre, University of Nebraska, USA, and 82 serum samples from healthy volunteers. All RA patients met the American College of Rheumatology (ACR) classification criteria (43).” left out
96-well plates (Maxisorp; Nunc, Roskilde, Denmark) were coated with α-enolase peptides at 10 μg/ml (diluted in a 50 mM carbonate buffer, pH 9.6), or with carbonate buffer alone, and incubated over night at 4° C. […] After a final wash (PBS-Tween, 0.05%), bound antibodies were detected with TMB substrate (KPL, Maryland, USA). The reaction was stopped by the addition of 1M H2SO4 and absorbance measured at 450 nm in a Multiscan Ascent microplate reader (Thermo Labsystems). […]

The subject of experiment [5] is anti-CEP-1 antibodies in anti-CEP-1 positive RA sera. As to the kind of experiment: Liquid phase inhibition of binding to CEP-1-coated plates. More on the design: species or system human. The settings on record: six anti-CEP-1 positive RA sera pre-incubated with 0, 1, 10 and 100 μg/ml peptide. Here is the method: Inhibition experiments were performed in liquid phase on six anti-CEP-1 positive RA serum samples or on solid phase using serum from nine double positive (anti-CEP-1 and CCP positive) RA patients. Sera were either pre-incubated for 2 hours in RIA-buffer containing increasing concentrations (0, 1, 10 and 100 μg/ml) of CEP-1, control peptide 1D, peptide 4, peptide 7, peptide 9 or peptide 11, or pre-absorbed on plates coated with CEP-1, carbonate buffer alone or pre-absorbed on commercial CCP2 plates. To eliminate antigen-antibody complexes, the liquid phase mixtures were centrifuged at 13 000 rpm, for 15 minutes, before the supernatants were transferred to CEP-1-coated plates and assessed as described above Inhibition of binding to CEP-1, for serum samples pre-absorbed to CCP, was calculated in relation to the maximum inhibition, which by definition was set to 100% for samples pre-incubated with CEP-1.

Experiment [6] relates to serum antibodies of SLE patients. As to the kind of experiment: ELISA of SLE patient sera on α-enolase peptides (Example 2). Format: binding, human. The note with it: 29 SLE patients; OD450 below 0.1 negative. On the procedure: Sera from 29 patients diagnosed with systemic lupus erythromatosus (SLE) were tested by ELISA for reactivity with 11 citrullinated α-enolase peptides, namely Peptide 1A, 1B, 1D and Peptides 2 to 9 as shown in Table 1. The ELISA assay was as described in Example 1.
The quantity of antibody, from each patient sample, binding to each peptide, is reflected by the OD (450 nm) in the ELISA assay. The OD (450 nm) corresponding to the background (buffer only) was subtracted. The results, after subtraction of background, are depicted in FIG. 8A. All OD (450 nm) values below 0.1 were considered negative (=0).

For experiment [7], the system named is serum antibodies of RA patients and healthy controls. The settings on record: seven patients; cited from earlier work.
Experiment [8] in a line: Disease activity score DAS28 (CRP and ESR) in treated RA patients. Format: in vivo, human. The note with it: 6, 18 and 52 weeks post treatment; MTX n=13, MTX+INF n=11.
From the text: as §1

The mark [9] stands for this setting: cut-off 98th percentile of controls.

Values joined by “and” are separate entries in the source; they are usually repeats but may differ in a detail not shown here. Identical values can stand only once. “Also recorded” adds a separate entry of the source. Bridges are numbered along the chain shown (N, C = ends). Where no end group is shown, it is not given here. [ ]: non-standard residue; d: D form. Cit = NC(=O)NCCC[C@H](N)C(=O)O

“ckiha-X-eifds-X-gnptvec (CKIHA[Cit]EIFDS[Cit]GNPTVEC; disulfide 1-19 (inferred); listed as Homo sapiens) [Peptide 1A]”: in experiment [1] (Swedish EIRA cohort), the “% positive for anti-CEP-1 antibodies, CCP+ RA (n=410)” value is listed as “Sixty” and the “% positive for anti-CEP-1 antibodies, CCP− RA (n=101)” value was determined as 17%. In experiment [1] (Swedish cohort), the “% positive for anti-CEP-1 antibodies, CCP+ healthy controls (n=16)” value stood at 25% and the “% positive for anti-CEP-1 antibodies, CCP− healthy controls (n=126)” value is reported as 0.8%. For the same compound, the “% of healthy controls reactive” value in experiment [2] (UK and US cohorts together) is 2%. For the same compound, the “% positive, RA (n = 102)” value in experiment [2] worked out at 37.3%. Further, the “% positive, RA (n = 102)” value in experiment [2] (listed as 1A(CEP-1)) is reported as 37%. For the same compound, the “% of anti-CCP negative RA patients positive” value in experiment [2] (UK cohort, anti-CCP negative RA sera) is 23%. Moreover, in experiment [2] (UK cohort, smaller disease control group), the “% positive, non-RA patient controls (n=92)” value is reported as 4.3%. In addition, in experiment [2] (UK cohort), the “% positive, Disease controls (n = 110)” value stood at 3%; the “% positive, Healthy controls (n = 92)” value was 2.2% and 2%. In addition, the “% positive, Healthy controls (n = 92)” value in experiment [2] (UK cohort, listed as 1A(CEP-1)) is given as 2%. Besides, the “specificity for RA” value in experiment [2] (UK cohort, disease controls (92 or 110) and 92 healthy controls) is 97%. Also, the “anti-CEP-1 antibody status of patients with SLE and Behçet's disease” value in experiment [2] (UK disease controls) is on record as “uniformly negative”. For the same compound, the “% of individuals without rheumatoid arthritis scored positive” value in experiment [2] (summary statement) is “about 3% and ~2%”. Moreover, the “specificity, US cohort” value in experiment [3] (82 healthy controls, no disease controls) worked out at 98%. Further, in experiment [3] (setting [9]), the “% RA patients positive / sensitivity, US cohort (n=81)” value was determined as 62% and the “% healthy controls positive, US cohort (n=82)” value turned out to be 2%. For the same compound, the “sensitivity at start of study” value in experiment [4] (24 RA patients, nine positive in each treatment group) is recorded as 75%. For the same compound, in experiment [5], the “inhibition of antibody binding to CEP-1-coated plates” value (“inhibition of antibody binding” below) is “dose dependent decrease; also recorded: dose-dependent inhibition”.

Regarding “cf-X-sgkydldfkspddps-X-yc (CF[Cit]SGKYDLDFKSPDDPS[Cit]YC; disulfide 1-21 (inferred); listed as Homo sapiens) [Peptide 6, human α-enolase aa 252-270]”, the “% of SLE sera scored positive” value in experiment [6] amounted to 3.4%. Moreover, in experiment [2], the “% positive, RA (n = 102)” value is 12%. In addition, in experiment [2] (UK cohort), the “% positive, Disease controls (n = 110)” value is given as 5% and the “% positive, Healthy controls (n = 92)” value amounted to 0%.

Consider “non-citrullinated protein: whole non-citrullinated α-enolase protein”, for which the “% of RA patients also recognizing the non-citrullinated protein” value in experiment [7] is given as 13%.

Consider “cangwgvmvsh-X-sgetedtc (CANGWGVMVSH[Cit]SGETEDTC; disulfide 1-20 (inferred); listed as Homo sapiens) [Peptide 7, human α-enolase aa 362-379]”, for which the “% of SLE sera scored positive” value in experiment [6] is listed as 3.4%. Further, the “% positive, RA (n = 102)” value in experiment [2] came out at 4%. For the same compound, in experiment [2] (UK cohort), the “% positive, Disease controls (n = 110)” value is recorded as 2% and the “% positive, Healthy controls (n = 92)” value is listed as 2%. In addition, in experiment [5], the “inhibition of antibody binding” value is recorded as “no inhibition”. Further, in experiment [5] (listed as peptide 7), the “inhibition of antibody binding” value is given as “did not result in decreased antibody binding”.

As to `CN(Cc1cnc2nc(N)nc(N)c2n1)c1ccc(C(=O)N[C@@H](CCC(=O)O)C(=O)O)cc1` [MTX, methotrexate], in experiment [8], the “DAS28 (CRP and ESR) change” value was “did not result in such statistically significant decrease; also recorded: did not change significantly”. Also, in experiment [4] (pre-treatment, 6, 18 and 52 weeks, not statistically significant), the “anti-Peptide 1A antibody levels over time” value is given as “increased”.
